{
  "source": "patent US20140037606A1",
  "about": "“CELL-BASED, ANTI-CANCER VACCINES” (priority 2012, published 2014)",
  "key": {"[1]": {"tested_on": "bone marrow-derived DCs", "test": "DC viability/lifespan by FACS of 7-AAD staining of CD11c+ cells", "type": "cell-based, mouse", "conditions": "treatment alone, no LPS; data not shown", "description": "(§1) FIG. 1. Inhibition of mTOR expression prolongs DC lifespan and promotes expression of costimulatory molecules CD40 and CD86. (A) DCs were pulsed with Pam2CSK4, LPS, R848, or CpG for 6 hours and then washed and cultured in complete medium. Cell viability was monitored daily by FACS analysis of 7-AAD staining of CD11c^+ cells. (B) Western blot for mTOR and β-actin protein in Luciferase hpRNA (Luc^hp) or mTOR hpRNA (mTOR^hp)-transduced DCs. (C) DCs were stimulated with media alone, LPS, or rapamycin+LPS for 30 minutes. Cells were subsequently fixed and stained for phosphorylated S6 protein as a molecular readout for mTOR activation and analyzed by FACS. (D) Luc^hp and mTOR^hp-transduced DCs were left untreated or stimulated with LPS and monitored daily for cell viability by analysis of 7-AAD staining of CD11c^+ cells. (E) Luc^hp or mTOR^hp DCs were cultured with or without LPS for 24 hours and analyzed by FACS for CD40 and CD86 expression. […]\n(§2) FIG. 2. […] Cells were monitored daily for cell viability as described for FIG. 1. […] (B) DCs were unstimulated or stimulated with LPS, RAP+LPS, or KU+LPS and analyzed by FACS 24 hours later for CD40 and CD86 expression. […] (C) DCs were treated as in (B) and analyzed daily by FACS for CD40 and CD86 expression gated on live CD11c^+ cells. […]"}, "[2]": {"tested_on": "bone marrow-derived DCs", "test": "Costimulatory molecule expression on DCs by FACS", "type": "cell-based, mouse", "description": "as §1, §2"}, "[3]": {"tested_on": "mTORC2-mediated Akt phosphorylation", "test": "Activation-induced Akt Ser473 phosphorylation in DCs", "type": "cell-based, mouse"}, "[4]": {"tested_on": "human myeloid DCs", "test": "Costimulatory molecule expression in human myeloid DCs by FACS", "type": "cell-based", "conditions": "R848 1 μg/mL, inhibitors 100 nM", "description": "FIG. 3. Pharmacological inhibition of mTOR augments the duration of costimulatory molecule expression in human myeloid DCs. (A) Human myeloid DCs were either unstimulated or stimulated with R848 in the presence or absence of rapamycin (RAP) or KU. CD40 and CD86 expression was analyzed by FACS. Day 4 costimulatory molecule expression from a representative donor (5430) is depicted. (B) DCs were treated as in (A) and analyzed daily by FACS for CD40 and CD86 expression. (C) DCs were treated as in (A) and analyzed for viability at indicated times by FACS analysis of 7-AAD staining. For each treatment, data from 4-6 individual donors is depicted.\nHuman DC Culture: Human myeloid DCs were isolated from human blood using MACS positive selection beads. In brief, filters from hospital blood donors were generously donated by the CVPH Medical Center in Plattsburgh, N.Y. Blood cells were obtained by reverse flushing filters in sterile HBSS. PBMCs were obtained by centrifugation of blood samples over Ficoll-Paque Plus (density 1.077 g/mL) (GE Healthcare). Myeloid DCs were enriched using the BDCA-1 Positive Selection DC Islation Kit (Miltenyi Bioscience) per the manufacturer's instructions. […] At indicated times, DCs were harvested and analyzed by FACS for maturation markers."}},
  "data": [
    {"smiles": "COc1ccc(-c2ccc3c(N4CCOCC4)nc(N4C[C@@H](C)O[C@@H](C)C4)nc3n2)cc1CO", "note": "[KU, KU 0063794]", "values": [
      {"measurement": "viability of unstimulated DCs", "setting": "[1]", "result": "did not impact"},
      {"measurement": "duration of expression of CD40 and CD86 in response to LPS", "setting": "[2]; analyzed daily, live CD11c+ cells", "result": "prolonged"},
      {"measurement": "percentage of DCs expressing CD40 and CD86", "setting": "[2]; during LPS stimulation, 24 hours, inhibitors 100 nM", "result": "increase"},
      {"measurement": "activation induced Akt Ser473 phosphorylation", "setting": "[3]", "result": "inhibited"},
      {"measurement": "costimulatory molecule expression (CD40, CD86) in response to R848", "setting": "[4]", "result": "enhanced"}
    ]}
  ]
}
